A short description of series [1]: Caco-2 Permeability Assay. It is filed as in vitro ADME, human. Particulars: human. From the text:
The compounds of the invention may be tested for biological activity as MPO inhibitors by methods known to those skilled in the art. In addition, methods such as, for example, a Caco-2 assay, may be used to test the bioavailability of the compounds of the invention. A description of a Caco-2 permeability assay is as follows:
• The Caco-2 monolayer is widely used across the pharmaceutical industry as an in vitro model of the human small intestinal mucosa to predict the absorption of orally administered drugs.^1-4 • The Caco-2 cell model mimics processes such as transcellular transport, paracellular transport, and some aspects of efflux and active transport. • Readout: Papp (A→B), Papp (B→A), Efflux ratio, % Recovery • Controls: with and without Pgp inhibitor; Atenolol, Propanolol, Taxel-1
The Caco-2 cells are cultured to confluency, trypsinized and seeded onto a filter transwell insert at a density of ^˜32,000 cells/well in DMEM cell culture medium. Cells are grown in a humidified atmosphere of 5% CO2 at 37° C. Following an overnight attachment period (24 h after seeding), the cell medium is replaced with fresh medium in both the apical and basolateral compartments every other day. The cell monolayers are used for transport studies 21 days post seeding after measuring the TEER values ([…]). The apical sides and basolateral sides are washed consecutively with HBSS 2.5% (v/v), HEPES (pH 7.4) or HBSS 2.5% (v/v), HEPES 10% (v/v), and Fetal Bovine Serum (pH 7.4) at 37° C. in an incubator under an atmosphere of 5% CO2.
Donor working solution is prepared by dilution of DMSO stock of test article or positive control with transport media to 10 μM.
For A→B directional transport, the donor working solution (with test article or positive control, with or without Pgp inhibitor) is added to the apical (A) compartment and the transport media as receiver working solution is added to the basolateral (B) compartment. For B→A directional transport, the donor working solution (with positive control or test article, with or without Pgp inhibitor) is added to the basolateral (B) compartment and transport media as receiver working solution is added to the apical (A) compartment.
The cells are incubated in a humidified atmosphere of 5% CO2 at 37° C. for 90 minutes.
At the end of the incubation, samples are taken from both donor and receiver compartments and transferred into 96-well assay plates containing internal standard solution (IS) in each well. After centrifugation, the supernatant solutions are transferred to clean 96 well plates and analyzed by LC-MS/MS. The MS detection is performed using a Sciex API 4000 instrument. Each compound is analyzed by reversed phase HPLC.
The parameters Papp (apparent permeability) and efflux ratio are calculated as follows:
Papp=(dQ/dt)×(1/C0)×(1/A)
Efflux ratio=Papp[B→A]/Papp[A→B]
where dQ/dt is the permeability rate, C0 is the initial concentration in the donor compartment, and A is the surface area of the cell monolayer (0.33 cm^2). The Papp value is a rate measured in cm/s. Calculated Papp is ranked as low (<[…]), moderate (1-10×10^−6 cm/s), and high (>[…]).
Comparing the efflux ratios generated in the presence and absence of a Pgp inhibitor identifies whether the test article is a Pgp substrate.
Recovery is calculated as follows:
% Recovery=(Total compound mass in donor and receiver compartments at the end of the incubation/Initial compound mass in the donor compartment)×100.
For orientation: Caco-2 cells form a polarised layer with tight junctions and transporters.

A short description of series [2]: Stability in Simulated Gastric Fluid (SGF). The format is in vitro ADME. Also on record: key: % parent compound remaining relative to 0-minute sample. Summed up: (§1)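 Stability was tested at 37° C in pepsin-supplemented gastric fluid, pH 1.2, and pancreatin-supplemented intestinal fluid, pH 6.8, using 2 μg/mL final compound over 0–60 minutes. Remaining parent was quantified by LC-MS/MS and expressed as a percentage of time zero.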

Series [3] can be described thus: Stability in Simulated Intestinal Fluid (SIF). It is filed as in vitro ADME. Also on record: key: % parent compound remaining relative to 0-minute sample. Summed up:
as §1

A short description of the next series: Plasma Stability. It is filed as in vitro ADME, human. Summed up:
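Compounds incubated at 1 μM in fresh human plasma for 1 hour at 37° C, then protein-precipitated with acetonitrile/formic acid containing internal standard. Remaining parent measured by LC-MS/MS in triplicate, expressed as percent of control remaining.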

The mark [4] stands for this setting: Caco-2, pH 7.4, donor 10 μM, 90 minutes, 37° C., direction not given.
The mark [5] stands for this setting: % remaining at 1 h, SGF with pepsin pH 1.2, 2 μg/mL, 37° C.
The mark [6] stands for this setting: % remaining at 1 h, SIF with pancreatin pH 6.8, 2 μg/mL, 37° C.
Setting [7] is: % remaining at 1 h, human plasma, 1 μM, 37° C.
Setting [8] is: Caco-2, pH 7.4, Caco-2 monolayer.

SMILES strings stand for the structures.

What is called Papp is a coefficient for how fast a substance crosses the barrier. The compound `CC(C)OCCn1c(=S)n(COC(=O)[C@@H](Cc2ccccc2)NC(=O)OC(C)(C)C)c(=O)c2c1ccn2COC(=O)[C@@H](Cc1ccccc1)NC(=O)OC(C)(C)C` [Example 307, [3-({[(2R)-2-{[(tert-butoxy)carbonyl]amino}-3-phenylpropanoyl]oxy}methyl)-4-oxo-1-[2-(propan-2-yloxy)ethyl]-2-sulfanylidene-1H,2H,3H,4H,5H-pyrrolo[3,2-d]pyrimidin-5-yl]methyl (2R)-2-{[(tert-butoxy)carbonyl]amino}-3-phenylpropanoate] registered a Papp at 90 min, 10 µM in series [1] (Caco-2, pH 7.4) of 0.334 ×10⁻⁶ cm/s. The SGF in series [2] (% remaining @ 1 h) is 26% @ 1 h. For the same compound, in series [3] (% remaining @ 1 h), the SIF is reported as 43% @ 1 h. For the same compound, the “human Plasma stability” value in the series “Plasma Stability” (% remaining @ 1 h) is listed as 99% @ 1 h.

The compound `CC(C)OCCn1c(=S)[nH]c(=O)c2c1ccn2COC(=O)[C@H](Cc1ccccc1)NC(=O)OC(C)(C)C` [Example 302, {4-oxo-1-[2-(propan-2-yloxy)ethyl]-2-sulfanylidene-1H,2H,3H,4H,5H-pyrrolo[3,2-d]pyrimidin-5-yl}methyl (2S)-2-{[(tert-butoxy)carbonyl]amino}-3-phenylpropanoate] yielded a Papp at 90 min, 10 µM in series [1] (Caco-2, pH 7.4) of 4.48 ×10⁻⁶ cm/s. In addition, the SGF in series [2] (% remaining @ 1 h) is on record as 97% @ 1 h. Besides, in series [3] (% remaining @ 1 h), the SIF is 5% @ 1 h. The “human Plasma stability” value in the series “Plasma Stability” (% remaining @ 1 h) turned out to be 67% @ 1 h.

`CC(C)OCCn1c(=S)[nH]c(=O)c2c1ccn2COC(=O)[C@@H]1CCCN1C(=O)OC(C)(C)C` [Example 1, (S)-tert-Butyl (1,2,3,4-tetrahydro-1-(2-isopropoxyethyl)-4-oxo-2-thioxopyrrolo[3,2-d]pyrimidin-5-yl)methyl pyrrolidine-1,2-dicarboxylate] registered a Papp at 90 min, 10 µM in series [1] (setting [4]) of 37.1 ×10⁻⁶ cm/s. Further, in series [2] (setting [5]), the SGF was 99%. The SIF in series [3] (setting [6]) is 94%. Also, in “Plasma Stability” (setting [7]), the “human Plasma stability” value is reported as 92%.

In series [1] (Caco-2, pH 7.4), `CC(C)OCCn1c(=S)[nH]c(=O)c2c1ccn2COC(=O)[C@@H](C)N.O=C(O)C(F)(F)F` [Example 292, trifluoroacetic acid {4-oxo-1-[2-(propan-2-yloxy)ethyl]-2-sulfanylidene-1H,2H,3H,4H,5H-pyrrolo[3,2-d]pyrimidin-5-yl}methyl (2R)-2-aminopropanoate] displayed a Papp at 90 min, 10 µM of less than 1.06 ×10⁻⁶ cm/s. Moreover, the SGF in series [2] (% remaining @ 1 h) is on record as 99% @ 1 h. Also, in series [3] (% remaining @ 1 h), the SIF is 7% @ 1 h. Moreover, in the series “Plasma Stability” (% remaining @ 1 h), the “human Plasma stability” value stood at 20% @ 1 h.

Compound `CC(C)OCCn1c(SCOC(=O)N(C)c2ccc(F)cc2)nc(=O)c2[nH]ccc21` [Example 211, ({4-oxo-1-[2-(propan-2-yloxy)ethyl]-1H,4H,5H-pyrrolo[3,2-d]pyrimidin-2-yl}sulfanyl)methyl N-(4-fluorophenyl)-N-methylcarbamate] came in with a Papp at 90 min, 10 µM in series [1] (setting [4]) of 20 ×10⁻⁶ cm/s. For the same compound, the SGF in series [2] (setting [5]) is 100% remaining. Besides, the SIF in series [3] (setting [6]) was 96% remaining. Besides, the “human Plasma stability” value in “Plasma Stability” (setting [7]) is recorded as 99% remaining.

As for `CC(C)OCCn1c(SCOC(=O)CCCCOC(=O)CN)nc(=O)c2c1ccn2COC(=O)CCCCOC(=O)CN.O=C(O)C(F)(F)F.O=C(O)C(F)(F)F` [Example 331, bis (trifluoroacetic acid) ({5-[{{5-[(2-aminoacetyl)oxy]pentanoyl}oxy)meth-yl]-4-oxo-1-[2-(propan-2-yloxy)ethyl]-1H,4H,5H-pyrrolo[3,2-d]pyrimidin-2-yl}sulfanyl)methyl 5-[(2-aminoacetyl)oxy]pentanoate], the Papp at 90 min, 10 µM in series [1] (Caco-2, pH 7.4) came to 3.68 ×10⁻⁶ cm/s. For the same compound, in series [2] (% remaining @ 1 h), the SGF is given as 93% @ 1 h. Also, in series [3] (% remaining @ 1 h), the SIF is 1% @ 1 h. Moreover, the “human Plasma stability” value in the series “Plasma Stability” (% remaining @ 1 h) stood at 1% @ 1 h.

As for `CC(C)OCCn1c(=S)[nH]c(=O)c2c1ccn2COC(=O)CCCCOC(=O)[C@@H](NC(=O)OC(C)(C)C)C(C)C` [Example 333, {4-oxo-1-[2-(propan-2-yloxy)ethyl]-2-sulfanylidene-1H,2H,3H,4H,5H-pyrrolo[3,2-d]pyrimidin-5-yl}methyl 5-{[(2S)-2-{[(tert-butoxy)carbonyl]amino}-3-methylbutanoyl]oxy}pentanoate], the Papp at 90 min, 10 µM in series [1] (Caco-2, pH 7.4) was less than 0.072 ×10⁻⁶ cm/s. Further, the SGF in series [2] (% remaining @ 1 h) is 98% @ 1 h. For the same compound, in series [3] (% remaining @ 1 h), the SIF was 4% @ 1 h. In the series “Plasma Stability” (% remaining @ 1 h), the “human Plasma stability” value turned out to be 5% @ 1 h.

In series [1] (setting [8]), `CC(C)OCCn1c(=S)[nH]c(=O)c2c1ccn2COC(=O)CCCCCCCCCCC(=O)O` [Example 261] came in with a Papp at 90 min, 10 µM of 11.7 ×10⁻⁶ cm/s. Also, the SGF in series [2] (simulated gastric fluid, after 1 h) is reported as 99% remaining. Moreover, in series [3] (simulated intestinal fluid, after 1 h), the SIF is 2% remaining. Besides, in “Plasma Stability” (human plasma, after 1 h), the “human Plasma stability” value is 94% remaining.

Compound `CC(C)OCCn1c(=S)[nH]c(=O)c2c1ccn2COC(=O)[C@@H](Cc1ccccc1)NC(=O)OC(C)(C)C` [Example 305, {4-oxo-1-[2-(propan-2-yloxy)ethyl]-2-sulfanylidene-1H,2H,3H,4H,5H-pyrrolo [3,2-d]pyrimidin-5-yl}methyl (2R)-2-{[(tert-butoxy)carbonyl]amino}-3-phenylpropanoate] gave a Papp at 90 min, 10 µM in series [1] (Caco-2, pH 7.4) of 3.84 ×10⁻⁶ cm/s. Moreover, in series [2] (% remaining @ 1 h), the SGF is listed as 73% @ 1 h. Also, in series [3] (% remaining @ 1 h), the SIF is listed as 1% @ 1 h. Also, in the series “Plasma Stability” (% remaining @ 1 h), the “human Plasma stability” value came to 39% @ 1 h.

`Cc1cccc(N(C)C(=O)OCn2c(=O)c3c(ccn3COC(=O)N(C)c3cccc(C)c3)n(CCOC(C)C)c2=S)c1` [Example 247] came in with a Papp at 90 min, 10 µM in series [1] (setting [8]) of 3.99 ×10⁻⁶ cm/s. The SGF in series [2] (simulated gastric fluid, at 1 h) is given as 64% remaining. For the same compound, the SIF in series [3] (simulated intestinal fluid, at 1 h) is 81% remaining. Further, the “human Plasma stability” value in “Plasma Stability” (human plasma, at 1 h) came out at 31% remaining.

The compound `CC(C)OCCn1c(=S)[nH]c(=O)c2c1ccn2COC(=O)N[C@H](C(=O)O)C(C)C` [Example 109, (2S)-3-methyl-2-{[({4-oxo-1-[2-(propan-2-yloxy)ethyl]-2-sulfanylidene-1H,2H,3H,4H,5H-pyrrolo[3,2-d]pyrimidin-5-yl}methoxy)carbonyl]amino}butanoic acid] registered a Papp at 90 min, 10 µM in series [1] (setting [4]) of 0.094 ×10⁻⁶ cm/s. The SGF in series [2] (setting [5]) is on record as 94%. Moreover, in series [3] (setting [6]), the SIF is 96%. Moreover, in the series “Plasma Stability” (setting [7]), the “human Plasma stability” value is recorded as 100%.

For the compound `CC(C)OCCn1c(=S)[nH]c(=O)c2c1ccn2C(C)OC(=O)N(CC(F)(F)F)CC(F)(F)F` (stereo not shown) [Example 112, 1-{4-oxo-1-[2-(propan-2-yloxy)ethyl]-2-sulfanylidene-1H,2H,3H,4H,5H-pyrrolo[3,2-d]pyrimidin-5-yl}ethyl N,N-bis(2,2,2-trifluoroethyl)carbamate], the Papp at 90 min, 10 µM in series [1] (setting [4]) came out at 21.1 ×10⁻⁶ cm/s. The SGF in series [2] (setting [5]) is recorded as 100%. For the same compound, in series [3] (setting [6]), the SIF is listed as 100%. The “human Plasma stability” value in “Plasma Stability” (setting [7]) amounted to 99%.

On to `CSCC[C@H](N)C(=O)NCCCCC(=O)OCn1ccc2c1c(=O)[nH]c(=S)n2CCOC(C)C.O=C(O)C(F)(F)F` [Example 31], for which the apparent permeability coefficient (Papp) at 90 min, 10 µM in series [1] (setting [8]) stood at 0.325 ×10⁻⁶ cm/s. Moreover, the SGF in series [2] (% remaining at 1 h in simulated gastric fluid) is listed as 94% remaining. Besides, the SIF in series [3] (% remaining at 1 h in simulated intestinal fluid) was 85% remaining. In the series “Plasma Stability” (% remaining at 1 h in human plasma), the “human Plasma stability” value stood at 1% remaining.

The values are drawn from US20240067651A1 (Biohaven Therapeutics Ltd., priority 2019, published 2024).
